Measurements from patent US20240180881A1, “METHODS FOR DECREASING RESISTANCE TO CHEMOTHERAPY” (National Institute of Immunology, priority 2022, published 2024).
Values belong to the compound of their own block, whether it stands above or below them.

Columns and labels:
[1] = biological target: T1, BLM-RAD54 interaction (BLM F2 and N-RAD54 F1) (Homo sapiens, UniProt Q92698); test: Renilla luciferase-based protein complementation assay (PCA); format: cell-based; details: disruption of BLM F2 / N-RAD54 F1 interaction, HEK293T cells, 1 nM to 100 μM; read-out: EC50
T1 construct: expressed in transfected cells; host or cells: HEK293T
T1 sequence (Q92698 1-212): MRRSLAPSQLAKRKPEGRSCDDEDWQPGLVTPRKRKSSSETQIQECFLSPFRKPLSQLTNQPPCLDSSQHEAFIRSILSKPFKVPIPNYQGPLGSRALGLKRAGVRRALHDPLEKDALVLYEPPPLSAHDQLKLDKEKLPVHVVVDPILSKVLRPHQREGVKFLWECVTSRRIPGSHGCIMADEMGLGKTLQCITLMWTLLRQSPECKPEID
Procedure: Specifically, N-RAD54-F1, C-RAD54-F1, BLM-F1 and BLM-F2 were transfected in HEK293T. Forty-eight hours post-transfection, Renilla luciferase-based PCA were carried out with the indicated combination of the expressed proteins. The experiment was repeated three times. Mean±S.D.
Using the Renilla luciferase-based protein complementation assay described earlier, 1280 FDA/EMA approved small molecules present in Prestwick chemical library were screened for their ability to disrupt BLM-RAD54 interaction. Each of the small molecules was incubated with HEK293T cells expressing BLM-F2 and N-RAD54-F1. Compared to cells expressing only BLM-F2 and N-RAD54-F1, the decrease in Renilla luciferase intensity in presence of each small molecule was monitored. Percentage disruption of the interaction between BLM F2 and N-RAD54 F1 was plotted in form of heatmap. The disruption of the BLM-RAD54 interaction was determined by a decrease in the Renilla luciferase activity as compared to control untreated cells.
The percentage disruption of the interaction between BLM F2 and N-RAD54 F1 was plotted as a non-linear regression line. The data was from three independent experiments.
Renilla Luciferase (Rlu) based Protein complementation assay was carried out as described in (Stefan et al., 2007). For preliminary screening of the Prestwick Chemical Library (containing 1280 FDA/EMA approved small molecules), HEK293T cells were seeded in the 6-well plates a day prior to the transfection. Next day the cells were transfected by 2 μg each of pcDNA3.1 N-RAD54 F1, pcDNA3.1 C-RAD54 F1, pcDNA3.1 BLM F1, pcDNA3.1 BLM F2 plasmids (alone or in different combinations) using Lipofectamine 2000 (according to the manufacturer's protocol). 36 hours post-transfection, approximately […] cells were seeded in a 96-well plate and incubated at 37° C. for 2 hour with or without 10 μM of the 1280 small molecules present in the library. 10 μM of Coenleterazine h was added into each well and Rluc activity was monitored for the first 10 seconds in Varioskan Microplate Reader (Thermo Fisher Scientific). The validation screen was performed with 17 small molecules at 100 μM, 10 μM, 1 μM, 100 nM, 10 nM and 1 nM concentrations. The percentage reduction in the protein-protein interaction was then calculated as compared to the control wells (without any small molecule).

RAD54 = biological target: T2, RAD54 (Homo sapiens, UniProt Q92698); test: ATP binding assay; format: biochemical; details: 10 μM compound
T2 construct: GST RAD54 (1-747) (WT); made in house; host or cells: E. coli BL-21 DE3
T2 sequence (Q92698 1-747): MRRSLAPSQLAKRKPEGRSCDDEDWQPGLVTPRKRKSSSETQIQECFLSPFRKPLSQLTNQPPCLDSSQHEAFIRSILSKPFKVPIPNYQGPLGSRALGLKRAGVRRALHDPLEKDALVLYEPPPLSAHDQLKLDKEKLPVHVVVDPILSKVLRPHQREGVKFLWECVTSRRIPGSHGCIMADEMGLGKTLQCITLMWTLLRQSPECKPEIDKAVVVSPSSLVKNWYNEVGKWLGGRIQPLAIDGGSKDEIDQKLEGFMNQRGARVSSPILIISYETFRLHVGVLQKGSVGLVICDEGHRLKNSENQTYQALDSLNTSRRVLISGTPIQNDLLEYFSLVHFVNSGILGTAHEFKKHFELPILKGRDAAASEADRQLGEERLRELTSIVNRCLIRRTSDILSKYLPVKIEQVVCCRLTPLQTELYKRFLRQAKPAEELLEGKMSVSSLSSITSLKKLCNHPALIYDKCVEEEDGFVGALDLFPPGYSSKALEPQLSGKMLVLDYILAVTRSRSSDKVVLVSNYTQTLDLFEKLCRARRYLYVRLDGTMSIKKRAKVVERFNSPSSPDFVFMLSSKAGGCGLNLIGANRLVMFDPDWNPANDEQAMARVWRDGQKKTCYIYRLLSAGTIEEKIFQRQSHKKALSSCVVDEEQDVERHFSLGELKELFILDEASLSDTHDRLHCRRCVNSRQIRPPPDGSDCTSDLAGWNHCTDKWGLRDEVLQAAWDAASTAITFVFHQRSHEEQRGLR
Procedure: The quantitation of the ATP binding assay was carried out using RAD54 WT, RAD54 WT+BLM_peptide, and RAD54 WT+SCM_peptide. The data is from three independent experiments. Mean±S.D.
The presence of the disruptors also led to a decrease in the ATP binding to RAD54.
A 20 μl reaction was set up with 120 nM of GST-RAD54 and 180 nM of either BLM_peptide or SCM_peptide or BLM (1-212) using 4 μl of 5×ATP binding assay buffer (100 mM Tris-Cl pH 7.5, 50 mM MgCl2, 10 mM MnCl2, 5 mM DTT) and 5 μCi of [γ^32P]dATP. […] Reactions were incubated at 30° C. for 20 minutes and were stopped with 10% TCA and samples were spotted on P81 phosphocellulose paper followed by washing of paper strips with 75 mM orthophosphoric acid. A minimum of 8 washes were given in 20 hrs of 1 hr each including a 12 hr wash. Following this, strips were dehydrated in ethanol for 10 min followed by liquid scintillation counting. Reactions without the substrate were spotted as control and the same process repeated.

EC50 [1]: 4.2 ± 0.198 nM
SMILES: CC(=O)Nc1nnc(S(N)(=O)=O)s1 [C3, Acetazolamide]
BLM dependent enhancement of ATP binding by RAD54 (RAD54): decreased BLM dependent enhancement of the binding of ATP by RAD54

SMILES: OCCN(CCO)c1nc(N2CCCCC2)c2nc(N(CCO)CCO)nc(N3CCCCC3)c2n1 [C7, Dipyridamole]
EC50 [1]: 6.16 ± 0.297 nM | BLM dependent enhancement of ATP binding by RAD54 (RAD54): decreased BLM dependent enhancement of the binding of ATP by RAD54

SMILES: CN1CCN(C2=Nc3ccccc3Oc3ccc(Cl)cc32)CC1.O=C(O)CCC(=O)O [C17, Loxapine succinate]
EC50 [1]: 22.9 ± 4.25 nM | BLM dependent enhancement of ATP binding by RAD54 (RAD54): decreased BLM dependent enhancement of the binding of ATP by RAD54
